For test [1], the system named is IL-2. Description: Cytokine assay, IL-2 release from PBMC. The format is cell-based. Conditions: human PBMC, 20 ug/mL PHA; for IC50: supernatant at 24 hours; for inhibition at 10 µM: 24 hours. How it is done: (§1) The ability of the compounds described herein to inhibit pro-inflammatory cytokines or phsophodiesterases were tested.
(§2) Frozen human peripheral blood mononucleocytes (PBMC) were thawed and centrifuged. Cryopreservation media was aspirated off of the cell pellet, and the cells were resuspended in fresh culture media (CM) comprising RPMI 1640 and 10% FBS in 96 well plates. Test article was dissolved in DMSO to form a 10 mM sample (DMSO, 100%). The 10 mM samples were diluted to 100 μM in CM (DMSO, 1%), then further diluted to 10, 1, 0.1, 0.01 μM in 200 μL of CM (n=3). […] IL-23 was assayed using a commercial ELISA kit (R&D Systems).

The subject of test [2] is IL-5. Nature of the test: Cytokine assay, IL-5 release from PBMC. Format: cell-based. Conditions: human PBMC, 20 ug/mL PHA; for IC50: supernatant at 48 hours; for inhibition at 10 µM: 48 hours. On the procedure: as §1, §2
The test system of test [3] is IFN-γ. Description: Cytokine assay, IFN-γ release from PBMC. The format is cell-based. The settings on record: human PBMC, 20 ug/mL PHA; for IC50: supernatant at 24 hours; for inhibition at 10 µM: 24 hours. On the procedure:
as §1, §2

The subject of test [4] is TNF-α. Nature of the test: Cytokine assay, TNF-α release from PBMC. Format: cell-based. Conditions: 1 μg/mL LPS; for IC50: Homo sapiens, PBMC, 24 h, supernatant at 24 hours; for inhibition at 10 µM: human PBMC, 24 hours. On the procedure: as §1, §2
Test [5] concerns IL-10. Nature of the test: Cytokine assay, IL-10 release from PBMC. Format: cell-based. The settings on record: human PBMC, 20 ug/mL PHA; for IC50: supernatant at 48 hours; for inhibition at 10 µM: 48 hours. How it is done:
as §1, §2

The subject of test [6] is T1, PDE4 partially purified from human U-937 myeloid leukemia cells.
T1 construct: PDE4 partially purified from human U-937 myeloid leukemia cells was used
Nature of the test: PDE4 Assay (enzyme from U-937 cells, [3H]cAMP). Format: biochemical. Conditions: PDE4 from U-937 cells, Tris buffer pH 7.5, 20 minutes at 25° C. How it is done: Test article and/or vehicle was incubated with 0.2 mg enzyme and 1 mM cAMP containing 0.01 mM [3H]cAMP in Tris buffer pH 7.5 for 20 minutes at 25° C. The reaction was terminated by boiling for 2 minutes and the resulting AMP is converted to adenosine by addition of 10 mg/ml snake venom nucleotidase and further incubation at 37° C. for 10 minutes. Unhydrolyzed cAMP is bound to AG1-X2 resin, and remaining [3H]Adenosine in the aqueous phase is quantitated by scintillation counting.

Broadly, the IC50 is the concentration at which inhibition is half-maximal. A lower IC50 goes with inhibition by little substance. In the case of `N#Cc1ccc(Oc2ccc3c(c2)COB3O)cc1C(=O)O` [D8, 5-(3-Carboxy-4-cyanophenoxy)-1,3-dihydro-1-hydroxy-2,1-benzoxaborole], the IC50 in test [1] was 1 to 4 µM; in test [2], over 10 µM; in test [3], over 10 µM; in test [4], over 10 µM; in test [5], over 10 µM.

As to `N#Cc1ccc(Oc2ccc3c(c2)COB3O)c(OCC(=O)O)c1` [D17, 5-[2-(Carboxymethoxy)-4-cyanophenoxy]-1,3-dihydro-1-hydroxy-2,1-benzoxaborole], the IC50 in test [6] was under 1 µM; in test [1], over 10 µM; in test [3], over 10 µM; in test [4] it was 4 to 10 µM.

For `O=C(O)c1ccc(Oc2ccc3c(c2)COB3O)c(O)c1` [D18, 5-(4-Carboxy-2-hydroxyphenoxy)-1,3-dihydro-1-hydroxy-2,1-benzoxaborole], the IC50 in test [1], in test [3] and in test [4] was over 10 µM each time.

For `CCOC(=O)c1ccc(Oc2ccc3c(c2)COB3O)c(O)c1` [D19, 5-(4-Ethoxycarbonyl-2-hydroxyphenoxy)-1,3-dihydro-1-hydroxy-2,1-benzoxaborole], the IC50 is under 1 µM in test [6], 1 to 4 µM in test [1], 1 to 4 µM in test [3] and 1 to 4 µM in test [4].

In the case of `CCOC(=O)c1ccc(Oc2ccc3c(c2)COB3O)c(OC)c1` [D20, 5-(4-Ethoxycarbonyl-2-methoxyphenoxy)-1,3-dihydro-1-hydroxy-2,1-benzoxaborole], the IC50 in test [6], in test [1], in test [3] and in test [4] was under 1 µM throughout.

`CCOC(=O)c1ccc(Oc2ccc3c(c2)COB3O)c(OC2CCCC2)c1` [D21, 5-[4-Ethoxycarbonyl-2-(cyclopentyloxy)phenoxy]-1,3-dihydro-1-hydroxy-2,1-benzoxaborole]: the IC50 in test [6] was under 1 µM; in test [1] it was under 1 µM; in test [3], under 1 µM; in test [4], 1 to 4 µM.

`N#Cc1ccc(Oc2ccc3c(c2)COB3O)c(C=O)c1` [D23, 5-(4-Cyano-2-formylphenoxy)-1,3-dihydro-1-hydroxy-2,1-benzoxaborole] returned an IC50 in test [4] of 4 to 10 µM.

Usually inhibition stands for how much of the control response was suppressed. Lower therefore signals a weak effect. As for `N#Cc1ccc(Oc2ccc3c(c2)COB3O)cc1OCC(=O)O` [D39, [2-Cyano-5-(1-hydroxy-1,3-dihydro-benzo[c][1,2]oxaborol-5-yloxy)-phenoxy]-acetic acid], the inhibition at 10 µM was 30 to 60% in test [1], under 30% in test [2], 30 to 60% in test [3] and 30 to 60% in test [4].

Regarding `CC1CCN(C(=O)COc2cc(Oc3ccc4c(c3)COB4O)ccc2C#N)CC1` [D42, 4-(1-Hydroxy-1,3-dihydro-benzo[c][1,2]oxaborol-5-yloxy)-2-[2-(4-methyl-piperidin-1-yl)-2-oxo-ethoxy]-benzonitrile], the inhibition at 10 µM in test [1] fell in the range of 90 to 100%; in test [2] it was 60 to 90%; in test [3], 90 to 100%; in test [4], 60 to 90%; in test [5] it was 60 to 90%.

On to `C[NH+]1CCN(C(=O)COc2cc(Oc3ccc4c(c3)COB4O)ccc2C#N)CC1` [D43, 4-(1-Hydroxy-1,3-dihydro-benzo[c][1,2]oxaborol-5-yloxy)-2-[2-(4-methyl-piperazin-1-yl)-2-oxo-ethoxy]-benzonitrile hexafluorophosphate], for which the inhibition at 10 µM in test [1] is 90 to 100%; in test [2] it was 60 to 90%; in test [3] it was 60 to 90%; in test [4], under 30%; in test [5], 60 to 90%.

For the compound `O=C(O)c1cnc(Oc2ccc3c(c2)COB3O)c(Cl)c1` [D49, 5-Chloro-6-(1-hydroxy-1,3-dihydrobenzo[c][1,2]oxaborol-5-yloxy)nicotinic acid], the IC50 in test [6] lay in the range of 1 to 4 µM; in test [1], 4 to 10 µM; in test [3], 4 to 10 µM; in test [4] it was 4 to 10 µM.

Consider `OCc1ccc(Oc2ccc3c(c2)COB3O)nc1` [D64, 5-(5-(Hydroxymethyl)pyridin-2-yloxy)benzo[c][1,2]oxaborol-1 (3H)-ol], for which the IC50 in test [1] is 4 to 10 µM; in test [2], over 10 µM; in test [3], 4 to 10 µM; in test [4] it was 1 to 4 µM; in test [5] it was 4 to 10 µM.

As for `CC(C)(C)/[N+]([O-])=C/c1ccc(Oc2ccc3c(c2)COB3O)nc1` [D70, (Z)—N-((6-(1-hydroxy-1,3-dihydrobenzo[c][1,2]oxaborol-5-yloxy)pyridin-3-yl)methylene)-2-methylpropan-2-amine oxide], the IC50 in test [6] is 1 to 4 µM; in test [1], under 1 µM; in test [3], 1 to 4 µM; in test [4] it was 1 to 4 µM.

For `CN(C)CCOC(=O)c1ccc(Oc2ccc3c(c2)COB3O)cc1` [D75, 4-(1-Hydroxy-1,3-dihydro-benzo[c][1,2]oxaborol-5-yloxy)-benzoic acid 2-dimethylamino-ethyl ester], the IC50 in test [1] is 1 to 4 µM; in test [2] it was 4 to 10 µM; in test [3], 4 to 10 µM; in test [4], 1 to 4 µM; in test [5], over 10 µM.

For the compound `O=C(NCCO)c1ccc(Oc2ccc3c(c2)COB3O)cc1` [D77, 4-(1-Hydroxy-1,3-dihydro-benzo[c][1,2]oxaborol-5-yloxy)-N-(2-hydroxy-ethyl)-benzamide], the IC50 was 1 to 4 µM in test [1]; over 10 µM in test [2]; 1 to 4 µM in test [3]; over 10 µM in test [4]; 4 to 10 µM in test [5].

Regarding `CN1CCN(C(=O)c2ccc(Oc3ccc4c(c3)COB4O)cc2)CC1` [D79, [4-(1-Hydroxy-1,3-dihydro-benzo[c][1,2]oxaborol-5-yloxy)-phenyl]-(4-methyl-piperazin-1-yl)-methanone], the IC50 in test [1], in test [2], in test [3], in test [4] and in test [5] was over 10 µM throughout.

Consider `CC(=O)N1CCN(C(=O)c2ccc(Oc3ccc4c(c3)COB4O)cc2)CC1` [D80, 1-{4-[4-(1-Hydroxy-1,3-dihydro-benzo[c][1,2]oxaborol-5-yloxy)-benzoyl]-piperazin-1-yl}-ethanone], for which the IC50 in test [1], in test [2], in test [3], in test [4] and in test [5] was over 10 µM throughout.

In the case of `CN(C)CCNC(=O)c1ccc(Oc2ccc3c(c2)COB3O)cc1` [D81, N-(2-Dimethylamino-ethyl)-4-(1-hydroxy-1,3-dihydro-benzo[c][1,2]oxaborol-5-yloxy)-benzamide], the IC50 is over 10 µM in test [1]; 4 to 10 µM in test [2]; over 10 µM in test [3]; over 10 µM in test [4]; over 10 µM in test [5].

`N#Cc1ccc(Oc2ccc3c(c2)COB3O)nc1O` [D108, 2-hydroxy-6-(1-hydroxy-1,3-dihydrobenzo[c][1,2]oxaborol-5-yloxy)nicotinonitrile] came in with an IC50 in test [6] of 4 to 10 µM.

For the compound `COc1nc(Oc2ccc3c(c2F)COB3O)ccc1C#N` [D114, 6-(4-Fluoro-1-hydroxy-1,3-dihydrobenzo[c][1,2]oxaborol-5-yloxy)-2-methoxynicotinonitrile], the IC50 in test [1] was under 1 µM; in test [2], under 1 µM; in test [3] it was under 1 µM; in test [4], under 1 µM; in test [5], over 10 µM.

Take `CC(C)(C)Nc1nc(Oc2ccc3c(c2)COB3O)ccc1C#N` [D129, 2-tert-butylamino-6-(1-hydroxy-1,3-dihydro-benzo[c][1,2]oxaborol-5-yloxy)-nicotinonitrile]: the IC50 in test [6] and in test [4] was under 1 µM each time.

For the compound `N#Cc1ccc(Oc2ccc3c(c2)COB3O)c(OC2CCCC2)c1` [D133, 3-(cyclopentyloxy)-4-(1-hydroxy-1,3-dihydrobenzo[c][1,2]oxaborol-5-yloxy)benzonitrile], the IC50 in test [6] and in test [4] was under 1 µM in each case.

For the compound `N#Cc1ccc(Oc2ccc3c(c2)COB3O)c(OCC2CC2)c1` [D134, 3-(cyclopropylmethoxy)-4-(1-hydroxy-1,3-dihydrobenzo[c][1,2]oxaborol-5-yloxy)benzonitrile], the IC50 in test [6] and in test [4] was under 1 µM throughout.

As to `N#Cc1ccc(Oc2ccc3c(c2)COB3O)c(OCC2CCCC2)c1` [D135, 3-(cyclopentylmethoxy)-4-(1-hydroxy-1,3-dihydrobenzo[c][1,2]oxaborol-5-yloxy)benzonitrile], the IC50 in test [6] and in test [4] was under 1 µM throughout.

`CC(C)COc1nc(Oc2ccc3c(c2)COB3O)ccc1C#N` [D136, 6-(1-Hydroxy-1,3-dihydro-benzo[c][1,2]oxaborol-5-yloxy)-2-isobutoxy-nicotinonitrile]: the IC50 in test [6] and in test [4] was under 1 µM each time.

The values are drawn from patent US9012431B2, “Boron-containing small molecules as anti-inflammatory agents” (Anacor Pharmaceuticals, Inc., priority 2008, dated 2015).
